Reference: ChEMBL document CHEMBL5052853, “Isoxazole derivatives targeting tacc3 as anticancer agents” (2021)
Activity calls are given as the source filed them. No cut-off for these calls is given here.

Columns and labels:
Format in all cases: functional, cell-based
JIMT-1 [1] = assay: Antiproliferative activity against human JIMT-1 cells after 72 hrs by SRB assay; conditions: JIMT-1, 72 h
JIMT-1 [2] = assay: Induction of apoptosis in human JIMT-1 cells at high concentration assessed as change in cleaved PARP levels and measured by Western blot analysis
RT-4 = assay: Antiproliferative activity against human RT-4 cells after 3 days by SRB assay; conditions: RT-4, 72 h
MCF-12A = assay: Antiproliferative activity against human MCF-12A cells
RT-112 = assay: Antiproliferative activity against human RT-112 cells after 3 days by SRB assay; conditions: RT-112, 72 h
JIMT-1 [3] = assay: Induction of DNA damage in human JIMT-1 cells at high concentration assessed as change in p-H2AX levels and measured by Western blot analysis
JIMT-1 [4] = assay: Induction of apoptosis in human JIMT-1 cells at high concentration assessed as change in cleaved caspase-3 levels and measured by Western blot analysis
JIMT-1 [5] = assay: Induction of mitotic arrest in human JIMT-1 cells at high concentration assessed as change in p-histone H3 levels and measured by Western blot analysis

SMILES | IC50 (JIMT-1 [1]) [nM] | other results
COc1ccc(-c2cc(N(C)c3ccnc(N4CCOCC4)n3)on2)cc1 | 160 | –
COc1ccc(-c2cc(Nc3ccnc(N4CCNCC4)n3)on2)cc1 | > 10000 | –
CC(C)c1ccc(-c2cc(Nc3ccnc(N4CCOCC4)n3)on2)cc1 | 3610 | –
COc1ccc(-c2cc(Nc3ccnc(N4C[C@@H](C)O[C@@H](C)C4)n3)on2)cc1 | 230 | –
CCCOc1ccc(-c2cc(Nc3ccnc(N4CCOCC4)n3)on2)cc1 | > 10000 | –
COc1ccc(-c2cc(Nc3nc(N4CCC(F)CC4)ncc3F)on2)cc1 | 540 | –
COc1ccc(-c2cc(Nc3ccnc(N4CCC(C)CC4)n3)on2)cc1 | 204 | –
CC(C)CNc1ccnc(NCc2csc(-c3ccccc3)n2)n1 | – | Activity (JIMT-1 [2]): Active; IC50 (RT-4): 7070 nM; IC50 (MCF-12A): > 10000 nM; IC50 (RT-112): 8710 nM; Activity (JIMT-1 [3]): Active; Activity (JIMT-1 [4]): Active; Activity (JIMT-1 [5]): Active
Oc1ccc(-c2cc(Nc3ccnc(N4CCOCC4)n3)on2)cc1 | > 10000 | –
COc1ccc(-c2cc(Nc3ccnc(N4C[C@@H]5C[C@H]4CO5)n3)on2)cc1 | 2020 | –
COc1ccc(-c2cc(Nc3ccnc(N4CCOCC4)n3)on2)cc1F | 13 | –
COc1ccc(-c2cc(Nc3ccnc(N4C5CCC4COC5)n3)on2)cc1 | 160 | –
CN(C)c1ccc(-c2cc(Nc3ccnc(N4CCOCC4)n3)on2)cc1 | 120 | –
Clc1ccc(-c2cc(Nc3ccnc(N4CCOCC4)n3)on2)cc1 | > 10000 | –
CN(C)c1ccc(-c2cc(Nc3ccnc(N4CCC(F)CC4)n3)on2)cc1 | 157 | –
COc1ccc(-c2cc(Nc3ccnc(N4CCC(C(=O)O)CC4)n3)on2)cc1 | > 10000 | –
COc1ccc(-c2cc(Nc3ccnc(N4CCOCC4)n3)on2)cc1Cl | 480 | –
c1cc(Nc2cc(-c3ccc4c(c3)OCO4)no2)nc(N2CCOCC2)n1 | 870 | –
CCc1ccc(-c2cc(Nc3ccnc(N4CCOCC4)n3)on2)cc1 | 259 | –
COc1ccc(-c2cc(Nc3ccnc(N4CCCC4)n3)on2)cc1F | 49 | –
COc1ccc(-c2cc(Nc3ccnc(N4CCN(C)CC4)n3)on2)cc1 | 1560 | –
CCOC(=O)C1CCN(c2nccc(Nc3cc(-c4ccc(OC)cc4)no3)n2)CC1 | > 10000 | –
Cc1ccc(-c2cc(Nc3ccnc(N4CCOCC4)n3)on2)cc1 | 640 | –
COc1ccc(-c2cc(Nc3ccnc(N4CCC(F)CC4)n3)on2)cc1 | 130 | –
COc1ccc(-c2cc(Nc3ccnc(N4CC5CCC(C4)O5)n3)on2)cc1 | 3090 | –
COc1ccc(-c2cc(Nc3ccnc(N4CCSCC4)n3)on2)cc1 | 113 | –

SMILES | IC50 (JIMT-1 [1]) [nM] | other results
COc1ccc(-c2cc(Nc3ccnc(N4CCS(=O)(=O)CC4)n3)on2)cc1 | > 10000 | –
COc1cccc(-c2cc(Nc3ccnc(N4CCOCC4)n3)on2)c1 | 3440 | –
c1ccc(-c2cc(Nc3ccnc(N4CCOCC4)n3)on2)cc1 | > 10000 | –
COc1ccc(-c2cc(Nc3ccnc(N4CCC(NN5CCOCC5)CC4)n3)on2)cc1 | 800 | –
CSc1ccc(-c2cc(Nc3ccnc(N4CCOCC4)n3)on2)cc1 | 30 | –
COc1ccc(-c2cc(Nc3ccnc(N4CCN(CCO)CC4)n3)on2)cc1 | > 10000 | –
COc1ccc(-c2cc(Nc3ccnc(N4C[C@H]5C[C@@H]4CO5)n3)on2)cc1 | 480 | –
COc1ccc(-c2cc(Nc3ccnc(N4CCOCC4)n3)on2)cc1OC | 730 | –
COc1ccc(-c2cc(Nc3ccnc(N4CCC(F)CC4)n3)on2)cc1F | 145 | –
COc1ccc(-c2cc(Nc3ccnc(N4CCC(C(F)(F)F)CC4)n3)on2)cc1 | 56 | –
FC(F)(F)c1ccc(-c2cc(Nc3ccnc(N4CCOCC4)n3)on2)cc1 | > 10000 | –
COc1ccc(-c2cc(Nc3ccnc(N4CCC(F)(F)CC4)n3)on2)cc1 | 370 | –
CC(F)(F)c1ccc(-c2cc(Nc3ccnc(N4CCOCC4)n3)on2)cc1 | > 10000 | –
COc1ccc(-c2cc(Nc3ccnc(N4CCCC4)n3)on2)cc1 | 105 | –
COc1ccc(-c2cc(Nc3ccnc(N4CCOCC4)n3)on2)cn1 | 7300 | –
Fc1ccc(-c2cc(Nc3ccnc(N4CCOCC4)n3)on2)cc1 | > 10000 | –
FC(F)(F)Oc1ccc(-c2cc(Nc3ccnc(N4CCOCC4)n3)on2)cc1 | > 10000 | –
COc1ccc(-c2cc(Nc3ccnc(N4CCCCC4)n3)on2)cc1 | 116 | –
CCOc1ccc(-c2cc(Nc3ccnc(N4CCOCC4)n3)on2)cc1 | 810 | –
COc1ccc(-c2cc(Nc3ccnc(N4CCC(CCO)CC4)n3)on2)cc1 | 3970 | –
COc1ccc(-c2cc(Nc3cc(C)nc(N4CCC(F)CC4)n3)on2)cc1 | 1000 | –
COc1ccccc1-c1cc(Nc2ccnc(N3CCOCC3)n2)on1 | 8270 | –
COc1ccc(-c2cc(Nc3ccnc(N4C5CCC4COC5)n3)on2)cc1F | 53 | –
FC(F)Oc1ccc(-c2cc(Nc3ccnc(N4CCOCC4)n3)on2)cc1 | 4230 | –
c1ccc(COc2ccc(-c3cc(Nc4ccnc(N5CCOCC5)n4)on3)cc2)cc1 | > 10000 | –
CCN(Cc1ccncc1)Cc1c(O)ccc2c(-c3cc4ccccc4oc3=O)cc(=O)oc12 | – | Activity (JIMT-1 [2]): Active; IC50 (RT-4): 5250 nM; IC50 (MCF-12A): > 10000 nM; IC50 (RT-112): 1200 nM; Activity (JIMT-1 [3]): Active; Activity (JIMT-1 [4]): Active; Activity (JIMT-1 [5]): Active
